The data set can be described thus: Pharmacokinetics of 8-aminoguanine: plasma disposition. The format is in vivo. The following applies: single bolus 5 mg/kg through the jugular catheter; for half-life: Sprague-Dawley, rat, plasma, intravenous, 5 mg/kg.

SMILES strings stand for the structures. Like-named read-outs stand apart in the source and are kept apart here.

Description: Rats were anesthetized with urethane (Sigma-Aldrich, St. Louis, MO) at 1.2 g/kg. A continuous infusion of 0.9% sterile saline at 25 ul/min was established via a catheter inserted into the jugular vein. A second catheter to the carotid artery was established in order to collect blood samples (200 μl) which were drawn into a 1 ml syringe prefilled with 50 U heparin. Blood samples were centrifuged at 1300 g for 10 minutes and supernatant (plasma) was then quickly frozen on dry ice and stored at −80° C. until assay. Urine samples were collected by a urethral catheter, centrifuged at 416 g for 10 minutes to remove sediment, and stored as above. Baseline blood samples and urine samples were collected followed by a single bolus of 8-aminoguanine (8-AG, 5 mg/kg) administered through the jugular catheter. Blood samples were collected after 15, 30, 60, 120 and 240 minutes. Urine samples were collected at 1, 2, 4 and 6 hours.
Purines in urine were measured by mass spectrometry using multiple reaction monitoring. Blood samples were diluted 1 to 30 with water, and heavy isotope internal standards were added to each sample. Purines were separated by reversed-phase ultra-performance liquid chromatography (Waters UPLC BEH C18 column, 1.7 μm beads; 2.1×150 mm; Milford, MA) and quantified by multiple reaction monitoring using a triple quadrupole mass spectrometer (TSQ Quantum-Ultra; ThermoFisher Scientific, San Jose, CA) with a heated electrospray ionization source. The mobile phase was a linear gradient flow rate (300 uL/min) of 1% acetic acid in water (pH, 3; mobile phase A) and 100% methanol (mobile phase B), and was delivered with a Waters Acquity ultra-performance liquid chromatographic system. The gradient (A/B) settings were: from 0 to 2 minutes, 99.6%/0.4%; from 2 to 3 minutes, to 98.0%/2.0%; from 3 to 4 minutes, to 85.0%/15.0%; from 4 to 6.5 minutes, to 99.6%/0.4%. […]

As to `Nc1nc2[nH]c(N)nc2c(=O)[nH]1` [8-AG, 8-Aminoguanine], the half-life (as a rule, how long it takes for the measured level to halve) reads like this: (read-out: half-life of first phase of decay (distribution from plasma into tissues) (converted)) 0.38 h; (read-out: half-life of second phase (elimination from the body) (converted)) 37 h. The plasma disposition result (rat plasma) is “bi-exponential decay”.

The values above are taken from patent US20250127787A1, “METHODS FOR TREATING PERIPHERAL NEUROPATHY” (University of Pittsburgh - Of the Commonwealth System of …, priority 2021, published 2025).
